# Reference: patent US20200140821A1, “EX VIVO MEAT PRODUCTION” (WILD TYPE, INC., priority 2017, published 2020)
# Entries after “also recorded” stand apart in the source; their conditions may differ.
# Test system: duck hepatocytes
# Assay: Induction of steatosis in cultured duck hepatocytes by incubation with fatty acid
# Type: cell-based
compound,measurement,setting,value
CCCCC/C=C\C/C=C\CCCCCCCC(=O)O [linoleic acid],dose response: percentage of hepatocytes with steatosis versus concentration,"0, 0.1, 0.25, 0.5, 1, 2 μm, FIG. 16B",corresponding increase in the percentage of hepatocytes with steatosis
same,percentage of steatotic hepatocytes,"2 μM linoleic acid, FIG. 16B",above 85%
same,induction of steatosis (accumulation of intracellular lipid-containing vesicles),"2 μM, compared to untreated control, FIG. 16A",successful induction of steatosis; also recorded: successfully induced to undergo steatosis
